Laboratory results taken from patent publication US12509474B2, “Inhibitors of complement factors and uses thereof” (Annexon, Inc., priority 2020, dated 2025).

These compounds were tested against T1, human C1s protein (Homo sapiens, UniProt P09871) (assay: C1s enzymatic assay (hydrolysis of YLGR-Rh110-dPro)). Conditions: substrate YLGR-Rh110-dPro 20 μM, 15 min pre-incubation, 60 min RT, fluorescence, read-out: hC1s pIC50 (converted).
T1 construct: A104
T1 sequence (P09871 16-688): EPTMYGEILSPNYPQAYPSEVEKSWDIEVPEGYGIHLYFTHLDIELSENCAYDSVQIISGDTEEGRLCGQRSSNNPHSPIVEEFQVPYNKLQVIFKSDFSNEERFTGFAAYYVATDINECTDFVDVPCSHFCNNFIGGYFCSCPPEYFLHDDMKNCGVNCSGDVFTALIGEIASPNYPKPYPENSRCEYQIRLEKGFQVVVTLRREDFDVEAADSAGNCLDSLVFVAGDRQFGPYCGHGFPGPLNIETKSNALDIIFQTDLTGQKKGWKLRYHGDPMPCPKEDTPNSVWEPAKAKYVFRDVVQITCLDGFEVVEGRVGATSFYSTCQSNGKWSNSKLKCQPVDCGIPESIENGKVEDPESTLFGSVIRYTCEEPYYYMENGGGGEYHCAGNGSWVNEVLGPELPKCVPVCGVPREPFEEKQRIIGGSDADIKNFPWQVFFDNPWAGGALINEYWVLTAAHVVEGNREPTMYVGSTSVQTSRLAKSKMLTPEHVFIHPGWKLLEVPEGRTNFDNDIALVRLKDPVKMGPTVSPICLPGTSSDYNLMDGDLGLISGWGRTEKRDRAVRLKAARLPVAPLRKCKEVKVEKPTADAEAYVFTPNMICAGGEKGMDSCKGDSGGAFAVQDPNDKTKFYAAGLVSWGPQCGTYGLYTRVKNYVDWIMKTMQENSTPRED
Type: biochemical
Procedure: Compound Testing in the C1s Enzymatic Assay
The enzyme cleaves the substrate with the release of Rh110 which is highly fluorescent. C1s inhibitors prevent the hydrolysis of the substrate thus resulting in a decrease of the signal.
On the day of the experiment 0.1 mg/mL BSA (Sigma, B4287) is added fresh to the buffer. The test item stock solutions are serially diluted 1:3 or 1:4 or 1:5 with DMSO, 11-point curves, in a 384-well compound plate. Nafamostat concentration curve is always included in the assay plate as a reference control.
The high controls are prepared dispensing in 0.25 μL DMSO in column 23, rows AH or AP and low controls with 0.25 μL of 0.1 M Nafamostat. […] The YLGR-Rh110-dPro substrate is prepared as 2× of the final assay concentration of 20 μM. 1/well of 2× enzyme solution is dispensed and pre-incubated for 15 min with the compounds. The enzymatic reaction is then started with 5 μL/well of the 2× substrate solution.
An IC50 of 2.95 nM was found for `Cc1nnc(N)c2ccc(-c3cnc(C(F)(F)F)c(B(O)O)c3)cc12` [Example 71, [5-(1-amino-4-methylphthalazin-6-yl)-2-(trifluoromethyl)pyridin-3-yl]boronic Acid] in this work.
An IC50 of 1.95 nM was found for `Cc1nnc(N)c2ccc(-c3ccc(C(F)(F)F)c(B(O)O)c3)cc12` [Example 74, [5-(1-amino-4-methylphthalazin-6-yl)-2-(trifluoromethyl)phenyl]boronic Acid] in this work.
An IC50 of 224 nM was found for `CNc1cnnc2cc(-c3cc(B(O)O)ccc3OC)ccc12` [Example 75, [4-methoxy-3-[4-(methylamino)cinnolin-7-yl]phenyl]boronic Acid] in this work.
An IC50 of 2.88 nM was found for `CC(C)NC(=O)COc1ccc(B(O)O)cc1-c1ccc2c(N)cnnc2c1` [Example 76, [3-(4-aminocinnolin-7-yl)-4-[2-oxo-2-(propan-2-ylamino)ethoxy]phenyl]boronic Acid] in this work.
An IC50 of 0.891 nM was found for `Nc1cnnc2cc(-c3cc(B(O)O)ccc3OC[C@@H]3CC(F)(F)CN3)ccc12` [Example 79, [3-(4-aminocinnolin-7-yl)-4-[[(2S)-4,4-difluoropyrrolidin-2-yl]methoxy]phenyl]boronic acid] in this work.
An IC50 of 617 nM was found for `COc1ccc(B(O)O)cc1-c1ccc2ccnnc2c1` [Example 80, [3-(cinnolin-7-yl)-4-methoxyphenyl]boronic Acid] in this work.
An IC50 of 0.575 nM was found for `Nc1cnnc2cc(-c3cc(B(O)O)ccc3OCC3CCCO3)ccc12` (stereo not drawn) [Example 82, [3-(4-aminocinnolin-7-yl)-4-(oxolan-2-ylmethoxy)phenyl]boronic Acid] in this work.
An IC50 of 4.57 nM was found for `COc1cc(C(F)(F)F)c(B(O)O)cc1-c1ccc2c(N)cnnc2c1` [Example 83, [5-(4-aminocinnolin-7-yl)-4-methoxy-2-(trifluoromethyl)phenyl]boronic Acid] in this work.
An IC50 of 11.7 nM was found for `Cc1nnc(N)c2ccc(-c3cc(B(O)O)cnc3C(F)(F)F)cc12` [Example 84, [5-(1-amino-4-methylphthalazin-6-yl)-6-(trifluoromethyl)pyridin-3-yl]boronic Acid] in this work.
An IC50 of 11200 nM was found for `Cc1nnc(N)c2ccc(-c3cc(B(O)O)ccc3NC(=O)c3cnsc3)cc12` [Example 87, [3-(1-amino-4-methylphthalazin-6-yl)-4-(1,2-thiazole-4-amido)phenyl]boronic Acid] in this work.
An IC50 of 5.75 nM was found for `Nc1cnnc2cc(-c3ccc(C(F)(F)F)c(B(O)O)c3)ccc12` [Example 88, [5-(4-aminocinnolin-7-yl)-2-(trifluoromethyl)phenyl]boronic Acid] in this work.
An IC50 of 5.89 nM was found for `Cc1nnc(N)c2ccc(-c3ccc(NC(=O)C(C)C)c(B(O)O)c3)cc12` [Example 89, [5-(1-amino-4-methylphthalazin-6-yl)-2-(2-methylpropanamido)phenyl]boronic Acid] in this work.
An IC50 of 1.62 nM was found for `Nc1cnnc2cc(-c3cc(B(O)O)ccc3OCC3(C(F)(F)F)CC3)ccc12` [Example 91, [3-(4-aminocinnolin-7-yl)-4-{[1-(trifluoromethyl)cyclopropyl]methoxy}phenyl]boronic Acid] in this work.
An IC50 of 17.4 nM was found for `COc1ccc(B(O)O)cc1-c1cc2nncc(N)c2cc1F` [Example 92, [3-(4-amino-6-fluorocinnoline-7-yl)-4-methoxyphenyl]boronic Acid] in this work.
An IC50 of 1 nM was found for `Cc1nnc(N)c2ccc(-c3ccc(NC(=O)c4ccccc4Cl)c(B(O)O)c3)cc12` [Example 93, [5-(1-amino-4-methylphthalazin-6-yl)-2-[(2-chlorobenzoyl)amino]phenyl]boronic Acid] in this work.
An IC50 of 11.7 nM was found for `Nc1cnnc2cc(-c3c(OC(F)F)ccc(B(O)O)c3F)ccc12` [Example 97, [3-(4-aminocinnolin-7-yl)-4-(difluoromethoxy)-2-fluorophenyl]boronic Acid] in this work.
An IC50 of 0.871 nM was found for `Nc1cnnc2cc(-c3cc(B(O)O)ccc3OCc3cnsc3)ccc12` [Example 98, [3-(4-aminocinnolin-7-yl)-4-[(1,2-thiazol-4-yl)methoxy]phenyl]boronic Acid] in this work.
An IC50 of 1.55 nM was found for `Nc1cnnc2cc(-c3cc(F)c4c(c3)B(O)OCC4)ccc12` [Example 99, 7-(4-aminocinnolin-7-yl)-5-fluoro-3,4-dihydro-1H-2,1-benzoxazonin-1-ol] in this work.
